Laboratory results published in patent US12398111B2, “Triazine compounds and pharmaceutical use thereof” (Japan Tobacco Inc., priority 2014, dated 2025).

Biological target: T1, human mPGES-1 (Homo sapiens, UniProt O14684)
T1 construct: made in house; host or cells: FreeStyle CHO-S cells (Chinese hamster ovary), transient transfection with pcDNA3.1(+)/human mPGES-1; microsome fraction used
T1 sequence (O14684 1-152): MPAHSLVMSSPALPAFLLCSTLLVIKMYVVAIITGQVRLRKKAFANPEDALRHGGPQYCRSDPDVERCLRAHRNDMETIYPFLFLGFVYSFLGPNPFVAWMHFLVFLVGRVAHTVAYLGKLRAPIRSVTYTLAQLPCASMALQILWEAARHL
Assay: Evaluation of human mPGES-1 enzyme inhibitory activity (PGE2 measured by HTRF, microsome fraction of CHO-S cells expressing human mPGES-1)
Format: biochemical
Conditions: IC50 value; microsome fraction of CHO-S cells expressing human mPGES-1, PGE2 by HTRF
Protocol: That is, the amount of PGE2 produced by human mPGES-1 in the presence of a test article was measured by the HTRF (homogeneous time resolved fluorescence) method, based on which the human mPGES-1 enzyme inhibitory activity of the test article was determined.
1) Preparation of Human mPGES-1 Expressing Cell Microsome Fraction
A DNA fragment containing human mPGES-1, which is added with a BamHI recognition cleavage sequence immediately before the translation initiation codon and an EcoRI recognition cleavage sequence immediately after the translation termination codon was amplified by the PCR (Polymerase Chain Reaction) method using a human mPGES-1 expression plasmid DNA (pME-18S/iPGES-1) prepared in-house as a template. The purified DNA fragment was digested with BamHI and EcoRI, and ligated to pcDNA3.1(+) (Invitrogen, model number V790-20), similarly digested with BamHI and EcoRI, by using a DNA Ligation kit ver.2.1 (Takara Bio, model number 6022). The human mPGES-1 expression plasmid DNA was isolated from Escherichia coli DH5a (TOYOBO, model number DNA-903) transformed with the obtained ligation product. The base sequence of human mPGES-1 cloned to a vector was determined by the Dye Terminator method by using BigDye Terminator v3.1 Cycle Sequencing Kit (Applied Biosystems, #4337455).
Human mPGES-1 expression plasmid DNA was transfected into Chinese hamster ovary-derived cells (FreeStyle CHO-S Cell, Invitrogen, #R800-07) by using a transgene reagent (FreeStyle MAX Reagent (Invitrogen, #16447-100)), and cultured with shaking (8% CO2, 37° C.) in a medium containing 8 mmol/L L-glutamine (GIBCO FreeStyle CHO Expression Medium, Invitrogen, #12651-022) for 48 hr.
The CHO-S cells were suspended in Homogenate Buffer (100 mmol/L potassium phosphate (pH 7.4), 250 mmol/L Sucrose, 100 mmol/L EDTA, complete EDTA free (Roche, #1873580)). Using an ultrasonic disruptor UD-201 (Tomy Seiko), the suspended cells were disrupted at output:3, duty cycle:50 for 30 seconds. The precipitate was removed by centrifugation (1,000×g, 5 min, 4° C.), is and the supernatant was centrifuged (5,000×g, 10 min, 4° C.). The supernatant was further centrifuged (105,000×g, 60 min, 4° C.). The obtained precipitate was suspended in Resuspension Buffer (100 mmol/L potassium phosphate (pH 7.4), 250 mmol/L sucrose, 100 mmol/L EDTA, 10% glycerol) to give a microsome fraction.
The protein concentration of the microsome fraction was measured by the Bradford method (Protein Assay Kit, Bio-Rad). The microsome fraction was rapidly frozen in liquid nitrogen and preserved at −80° C. Human mPGES-1 in the microsome fraction was detected by Western Blot using rabbit anti-mPGES-1 polyclonal antibody (ThermoFisher Scientific, #PA1-10264).
2) Evaluation of Human mPGES-1 Enzyme Inhibitory Activity
A test article solution diluted with 0.1 mol/L potassium phosphate, pH 7.4 (hereinafter to be referred to as KPB) or DMSO (Nacalai Tesque, #13407-45) was added at 5 μL/well to 96 well V-bottom plate (Corning, #3363). The final DMSO concentration during the reaction was set to 2% (v/v). Furthermore, a microsome fraction of CHO-S cells expressing human mPGES-1, which was diluted with reduced GSH (12.5 mmol/L KPB solution, SIGMA, #G6529-25G) such that the protein concentration was 5 μg/mL, was added at 20 μL/well. The amount of the microsome fraction used is the amount of microsome fraction within a range where the amount of PGE2 produced under the reaction conditions shown below and the amount of microsome fraction used show linearity. To the blank was added reduced GSH (12.5 mmol/L KPB solution) at 20 μL/well.

SMILES | IC50 [nM]
CCCc1ccc(-c2nc(O)nc(-c3cc(CNC(=O)C(C)(C)C)ccc3Cl)n2)cc1 [Example 1-44] | 0.6
Cc1ccc(CO)cc1-c1nc(O)nc(-c2ccc(C(F)(F)F)cc2)n1 [Example 1-45] | 138
CC(C)c1ccc(-c2nc(O)nc(-c3cc(CNC(=O)C(C)(C)C)ccc3Cl)n2)cc1 [Example 1-46] | 0.7
CC(=O)NCc1ccc(C)c(-c2nc(O)nc(-c3ccc(C(F)(F)F)cc3)n2)c1 [Example 1-47] | 43
Cc1ccc(CNC(=O)C(C)(C)C)cc1-c1nc(O)nc(-c2ccc(C(F)(F)F)cc2)n1 [Example 1-48] | 0.9
CC(C)c1cccc(-c2nc(O)nc(-c3cc(CNC(=O)C(C)(C)C)ccc3Cl)n2)c1 [Example 1-49] | 0.9
CCCc1cccc(-c2nc(O)nc(-c3cc(CNC(=O)C(C)(C)C)ccc3Cl)n2)c1 [Example 1-50] | 0.9
CC1(C(=O)NCc2ccc(Cl)c(-c3nc(O)nc(-c4ccccc4)n3)c2)CCCCC1 [Example 1-52] | 0.6
COC(C)(C)C(=O)NCc1ccc(Cl)c(-c2nc(O)nc(-c3ccccc3)n2)c1 [Example 1-53] | 4.5
CC(C)(C)C(=O)NCc1ccc(Cl)c(-c2nc(O)nc(-c3cccc(C(F)(F)F)c3)n2)c1 [Example 1-54] | 0.9
CCc1cccc(-c2nc(O)nc(-c3cc(CNC(=O)C(C)(C)C)ccc3Cl)n2)c1 [Example 1-55] | 1.1
COC(C)(C)C(=O)NCc1ccc(Cl)c(-c2nc(O)nc(-c3ccc(C(F)(F)F)cc3)n2)c1 [Example 1-56] | 0.6
CC(C)(C)C(=O)NCc1ccc(Cl)c(-c2nc(O)nc(-c3cccc(C(C)(C)C)c3)n2)c1 [Example 1-57] | 0.5
CCC(C)(C)C(=O)NCc1ccc(Cl)c(-c2nc(O)nc(-c3cccc(C(F)(F)F)c3)n2)c1 [Example 1-58] | 0.5
CC(C)(C(=O)NCc1ccc(Cl)c(-c2nc(O)nc(-c3cccc(C(F)(F)F)c3)n2)c1)C(F)(F)F [Example 1-59] | 0.6
CC(C)(C)C(=O)NCc1ccc(Cl)c(-c2nc(O)nc(-c3ccc(OC(F)(F)F)cc3)n2)c1 [Example 1-60] | 0.4
CC(C)(C)C(=O)NCc1ccc(Cl)c(-c2nc(O)nc(-c3cccc(OC(F)(F)F)c3)n2)c1 [Example 1-61] | 0.7
CCOc1cccc(-c2nc(O)nc(-c3cc(CNC(=O)C(C)(C)C)ccc3Cl)n2)c1 [Example 1-62] | 1
Cc1ccc(-c2nc(O)nc(-c3cc(CNC(=O)C(C)(C)C)ccc3Cl)n2)cc1 [Example 1-63] | 0.5
Cc1cccc(-c2nc(O)nc(-c3cc(CNC(=O)C(C)(C)C)ccc3Cl)n2)c1 [Example 1-64] | 1.9
O=C(NCc1ccc(Cl)c(-c2nc(O)nc(-c3ccccc3)n2)c1)C12CC3CC(CC(C3)C1)C2 [Example 1-65] | 8.6
O=C(NCc1ccc(Cl)c(-c2nc(O)nc(-c3ccccc3)n2)c1)C1CCC1 [Example 1-66] | 4.1
O=C(NCc1ccc(Cl)c(-c2nc(O)nc(-c3ccccc3)n2)c1)C1CCCC1 [Example 1-67] | 1
O=C(NCc1ccc(Cl)c(-c2nc(O)nc(-c3ccccc3)n2)c1)C1(C(F)(F)F)CCCC1 [Example 1-68] | 0.3
CC(C)(C(=O)NCc1ccc(Cl)c(-c2nc(O)nc(-c3ccccc3)n2)c1)C(F)(F)F [Example 1-69] | 0.3
O=C(NCc1ccc(Cl)c(-c2nc(O)nc(-c3ccccc3)n2)c1)C1(C(F)(F)F)CCC1 [Example 1-70] | 0.7

SMILES | IC50 [nM]
O=C(NCc1ccc(Cl)c(-c2nc(O)nc(-c3ccccc3)n2)c1)C1CCCCC1 [Example 1-71] | 2.5
CC1(C(=O)NCc2ccc(Cl)c(-c3nc(O)nc(-c4ccccc4)n3)c2)CCC1 [Example 1-72] | 1.3
CC1(C(=O)NCc2ccc(Cl)c(-c3nc(O)nc(-c4ccccc4)n3)c2)CCCC1 [Example 1-73] | 0.6
CC(C)(C)C(=O)NCc1ccc(Cl)c(-c2nc(O)nc(-c3ccc(F)cc3)n2)c1 [Example 1-74] | 0.6
COCc1cccc(-c2nc(O)nc(-c3cc(CNC(=O)C(C)(C)C)ccc3Cl)n2)c1 [Example 1-75] | 6.7
CC(C)(C)C(=O)NCc1ccc(Cl)c(-c2nc(O)nc(-c3cccc(F)c3)n2)c1 [Example 1-76] | 1.7
CC(C)(C(=O)NCc1ccc(Cl)c(-c2nc(O)nc(-c3cccc(OC(F)(F)F)c3)n2)c1)C(F)(F)F [Example 1-77] | 0.9
O=C(NCc1ccc(Cl)c(-c2nc(O)nc(-c3cccc(OC(F)(F)F)c3)n2)c1)C1(C(F)(F)F)CCCC1 [Example 1-78] | 2.2
O=C(NCc1ccc(Cl)c(-c2nc(O)nc(-c3cccc(C(F)(F)F)c3)n2)c1)C1(C(F)(F)F)CCCC1 [Example 1-79] | 1.2
CC(C)(C)c1cccc(-c2nc(O)nc(-c3cc(CNC(=O)C4(C(F)(F)F)CCCC4)ccc3Cl)n2)c1 [Example 1-80] | 3.1
CC(C)Oc1ccc(-c2nc(O)nc(-c3cc(CNC(=O)C(C)(C)C)ccc3Cl)n2)cc1 [Example 1-82] | 0.8
CC(C)OC(=O)NCc1ccc(Cl)c(-c2nc(O)nc(-c3cccc(C(C)(C)C)c3)n2)c1 [Example 1-83] | 11
COC(C)(C)C(=O)NCc1ccc(Cl)c(-c2nc(O)nc(-c3cccc(C(C)(C)C)c3)n2)c1 [Example 1-84] | 0.6
CCOc1cccc(-c2nc(O)nc(-c3cc(CNC(=O)C4(C(F)(F)F)CCCC4)ccc3Cl)n2)c1 [Example 1-85] | 0.5
CC(C)(C)COc1ccc(-c2nc(O)nc(-c3cc(CNC(=O)C(C)(C)C(F)(F)F)ccc3Cl)n2)cc1 [Example 1-86, N-(4-chloro-3-{4-[4-(2,2-dimethylpropoxy)phenyl]-6-hydroxy-1,3,5-triazin-2-yl}benzyl)-3,3,3-trifluoro-2,2-dimethylpropionamide] | 5.8
CO[C@](C)(C(=O)NCc1ccc(Cl)c(-c2nc(O)nc(-c3ccccc3)n2)c1)C(F)(F)F [Example 1-87] | 0.8
CC(C)COc1cccc(-c2nc(O)nc(-c3cc(CNC(=O)C(C)(C)C(F)(F)F)ccc3Cl)n2)c1 [Example 1-88] | 1.2
CO[C@@](C)(C(=O)NCc1ccc(Cl)c(-c2nc(O)nc(-c3ccccc3)n2)c1)C(F)(F)F [Example 1-89] | 0.9
Cc1cc(-c2nc(O)nc(-c3cc(CNC(=O)C(C)(C)C(F)(F)F)ccc3Cl)n2)ccc1F [Example 1-90] | 0.4
CC(C)Oc1cccc(-c2nc(O)nc(-c3cc(CNC(=O)C(C)(C)C(F)(F)F)ccc3Cl)n2)c1 [Example 1-91] | 0.4
CC(C)(C)c1cccc(-c2nc(O)nc(-c3cc(CNC(=O)C(C)(C)C(F)(F)F)ccc3Cl)n2)c1 [Example 1-92] | 0.5
Cc1cc(C)cc(-c2nc(O)nc(-c3cc(CNC(=O)C(C)(C)C(F)(F)F)ccc3Cl)n2)c1 [Example 1-93] | 0.7
CC(C)(C)c1cccc(-c2nc(O)nc(-c3cc(CNC(=O)c4ccccc4)ccc3Cl)n2)c1 [Example 1-94] | 4.6
CC(C)Cc1cccc(-c2nc(O)nc(-c3cc(CNC(=O)C(C)(C)C(F)(F)F)ccc3Cl)n2)c1 [Example 1-95] | 2.1
CCO[C@](C)(C(=O)NCc1ccc(Cl)c(-c2nc(O)nc(-c3ccccc3)n2)c1)C(F)(F)F [Example 1-96] | 81
